Patent US20230263822A1, “MODULATION OF FACTOR 11 EXPRESSION” (Ionis Pharmaceuticals, Inc., priority 2008, published 2023)

Columns and labels:
human Factor 11 mRNA [1] = assay: Dose-dependent inhibition of human Factor 11 in HepG2 cells, electroporation 625-20,000 nM (Example 5); type: cell-based; details: ~16 hours
Method: The gapmers were also transfected via electroporation and their dose dependent inhibition of human Factor 11 mRNA was measured. Cells were plated at a density of 20,000 cells per well and transfected via electroporation with 625 nM, 1250 nM, 2500 nM, 5,000 nM, 10,000 nM, and 20,000 nM concentrations of antisense oligonucleotide, as specified in Table 12. After a treatment period of approximately 16 hours, RNA was isolated from the cells and human Factor 11 mRNA levels were measured by quantitative real-time PCR. Human Factor 11 primer probe set RTS 2966 was used to measure mRNA levels. Factor 11 mRNA levels were adjusted according to total RNA content, as measured by RIBOGREEN. Results are presented as percent inhibition of human Factor 11, relative to untreated control cells.

human Factor 11 mRNA [2] = assay: Dose-dependent inhibition of human Factor 11 in cyano primary hepatocytes, electroporation (Example 6); type: cell-based; details: ~16 hours
Method: Cells were plated at a density of 35,000 cells per well and transfected via electroporation with 0.74 nM, 2.2 nM, 6.7 nM, 20 nM, 60 nM, and 180 nM concentrations of antisense oligonucleotide, as specified in Table 13. After a treatment period of approximately 16 hours, RNA was isolated from the cells and human Factor 11 mRNA levels were measured by quantitative real-time PCR. Human Factor 11 primer probe set RTS 2966 was used to measure mRNA levels. Factor 11 mRNA levels were adjusted according to total RNA content, as measured by RIBOGREEN. Results are presented as percent inhibition of human Factor 11, relative to untreated control cells.

[3] = set-up: species or system Sprague-Dawley rats; details: rat, in vivo
Method: Three days after the last dose, the rats were sacrificed and livers and kidneys were collected for analysis.
The concentration of the full-length oligonucleotide as well as the total oligonucleotide concentration (including the degraded form) was measured. The method used is a modification of previously published methods (Leeds et al., 1996; Geary et al., 1999) which consist of a phenol-chloroform (liquid-liquid) extraction followed by a solid phase extraction. An internal standard (ISIS 355868, a 27-mer 2′-O-methoxyethyl modified phosphorothioate oligonucleotide, […], designated herein as SEQ ID NO: 270) was added prior to extraction. […] The results are presented in Tables 77 and 78, expressed as μg/g liver or kidney tissue. Half-lives were then calculated using WinNonlin software ([…]).

[4] = Viscosity of ISIS antisense oligonucleotides, micro-viscometer at 25 °C (Example 47); type: physicochemical; details: for Concentration: concentration of the viscosity sample, UV reading at 260 nM at 85° C.; for Viscosity: in water, micro-viscometer at 25° C., at the concentration of the same line
How it was run: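 Oligonucleotide (32-35 mg) was dissolved in 120 μL water by heating at 50° C, and viscosity was measured by micro-viscometer at 25° C. Concentration was checked by UV at 260 nm at 85° C on a dilution in water. Screening cut-off: >40 cP at 165-185 mg/mL.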

Substance	percent inhibition of human Factor 11 mRNA relative to untreated control cells (human Factor 11 mRNA [1]; 625 nM) [%]	percent inhibition of human Factor 11 mRNA relative to untreated control cells (human Factor 11 mRNA [1]; 1250 nM) [%]	percent inhibition of human Factor 11 mRNA relative to untreated control cells (human Factor 11 mRNA [1]; 2500 nM) [%]	percent inhibition of human Factor 11 mRNA relative to untreated control cells (human Factor 11 mRNA [1]; 5000 nM) [%]	percent inhibition of human Factor 11 mRNA relative to untreated control cells (human Factor 11 mRNA [1]; 10000 nM) [%]	percent inhibition of human Factor 11 mRNA relative to untreated control cells (human Factor 11 mRNA [1]; 20000 nM) [%]	percent inhibition of human Factor 11 mRNA relative to untreated control cells (human Factor 11 mRNA [2]; 0.74 nM) [%]	percent inhibition of human Factor 11 mRNA relative to untreated control cells (human Factor 11 mRNA [2]; 2.2 nM) [%]	percent inhibition of human Factor 11 mRNA relative to untreated control cells (human Factor 11 mRNA [2]; 6.7 nM) [%]	percent inhibition of human Factor 11 mRNA relative to untreated control cells (human Factor 11 mRNA [2]; 20 nM) [%]	percent inhibition of human Factor 11 mRNA relative to untreated control cells (human Factor 11 mRNA [2]; 60 nM) [%]	percent inhibition of human Factor 11 mRNA relative to untreated control cells (human Factor 11 mRNA [2]; 180 nM) [%]	Half-life in the liver and kidney [3] [days]	Concentration [4] [mg/mL]	Viscosity [4] [cP]
416825 (antisense GCCCTTCATGTCTAGGTCCA; 5-10-5 gapmer, further chemistry not given here) [compound 416825]	69	84	91	94	96	97	5	22	51	61	77	84	16	–	–
416850 (antisense TGCACAGTTTCTGGCAGGCC; 5-10-5 gapmer, further chemistry not given here) [compound 416850]	69	80	87	90	93	96	2	20	24	65	69	67	18	152	67
416858 (antisense ACGGCATTGGTGCACAGTTT; 5-10-5 gapmer, further chemistry not given here) [compound 416858]	65	77	87	89	93	93	2	13	22	44	63	68	26	166	10
416892 (antisense GCCCTTCATGTCTAGGTCCA; 3-14-3 chimeric gapmer, further chemistry not given here) [compound 416892]	66	86	96	97	100	100	20	20	43	62	88	92	12	–	–
416826 (antisense ATGCCCTTCATGTCTAGGTC; 5-10-5 gapmer, further chemistry not given here) [compound 416826]	67	82	89	92	95	97	13	24	34	67	69	71	13	–	–
417003 (antisense TGGTGCACAGTTTCTGGCAG; 2-13-5 gapmer chemistry, further chemistry not given here) [compound 417003]	60	74	86	90	95	95	12	18	19	39	58	74	10	–	–
417002 (antisense GGTGCACAGTTTCTGGCAGG; 2-13-5 gapmer chemistry, further chemistry not given here) [compound 417002]	59	72	86	90	94	96	32	16	28	38	55	71	11	–	–
